Measured values reported in the supplement of paper PMC10307832.

Tests used:
Test in all cases: relative viability (nuclei count vs DMSO), 5 days (fraction); higher = more cells survive
[1] = compound: O=C1NC(=O)[C@@H](c2cn3c4c(cccc24)CCC3)[C@@H]1c1c[nH]c2ccccc12 [Tivantinib] + CC(C)C[C@H](NC(=O)[C@H](Cc1ccccc1)NC(=O)c1cnccn1)B(O)O [Bortezomib] (partner 0.002 µM)
How it was run: (§1)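 Lung cancer cell lines in 1536-well plates were dosed by pin tool the day after seeding, either with one drug alone or with a fixed anchor-drug dose plus five library-drug doses (not always all listed) in √10 steps. After 5 days, cells were fixed and their nuclei stained in one step (final 0.05% Triton X-100, 1% formaldehyde, 1 ug/ml Hoechst), then counted on 4× images. Relative viability is the nuclei count in treated wells divided by that in vehicle wells. Values are medians of duplicate plates.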

[2] = compound: CC1(COc2ccc3c(c2)ncn3-c2ccc3cccc(N4CCC(N)CC4)c3n2)COC1 [Crenolanib] + Cc1nc(NC(=O)N2CCC[C@H]2C(N)=O)sc1-c1ccnc(C(C)(C)C(F)(F)F)c1 [Alpelisib] (partner 2 µM)
How it was run: as §1

[3] = compound: CC1(COc2ccc3c(c2)ncn3-c2ccc3cccc(N4CCC(N)CC4)c3n2)COC1 [Crenolanib]
How it was run: (§2)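 Hoechst staining, done together with fixation and permeabilisation, marked nuclei for 4× imaging and MetaXpress counting. This followed 5 days without medium change after lung cancer cell lines, kept overnight at 37 °C in 1536-well plates, were pinned with five library-drug doses (not always all listed) spaced by √10 on vehicle-anchored plates. Viability is the ratio of treated-well to vehicle-well nuclei, expressed as a median across plates. Plates passed only at control CV below 25% with at least one doubling.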

[4] = compound: O=C1NC(=O)[C@@H](c2cn3c4c(cccc24)CCC3)[C@@H]1c1c[nH]c2ccccc12 [Tivantinib]
How it was run: as §2

Row | Cell Line | relative viability ([1]; first compound 0.01 µM) | relative viability ([1]; first compound 0.03162 µM) | relative viability ([1]; first compound 0.1 µM) | relative viability ([1]; first compound 0.3162 µM) | relative viability ([2]; first compound 0.01 µM) | relative viability ([2]; first compound 0.03162 µM) | relative viability ([2]; first compound 0.1 µM) | relative viability ([2]; first compound 0.3162 µM) | relative viability ([2]; first compound 1 µM) | relative viability ([3]; 0.01 µM) | relative viability ([3]; 0.03162 µM) | relative viability ([3]; 0.1 µM) | relative viability ([3]; 0.3162 µM) | relative viability ([3]; 1 µM) | relative viability ([4]; 0.01 µM) | relative viability ([4]; 0.03162 µM) | relative viability ([4]; 0.1 µM) | relative viability ([4]; 0.3162 µM)
1 | NCI-H1993 | 1.16 | 1.05 | 1.14 | 0.79 | 0.682 | 0.629 | 0.688 | 0.737 | 0.709 | 0.985 | 0.889 | 0.919 | 1.06 | 0.925 | 1 | 0.897 | 0.927 | 0.721
2 | CAL-12T | 0.999 | 0.873 | 1.03 | 0.854 | 1.33 | 1.12 | 1.21 | 1.49 | 1.2 | 1.07 | 0.948 | 0.984 | 1.05 | 0.992 | 1.1 | 0.853 | 0.969 | 0.627
3 | NCI-H1623 |  |  |  |  |  |  |  |  |  | 1.08 | 0.968 | 0.876 | 1.01 | 0.94 | 0.978 | 0.961 | 0.911 | 
4 | HCC-78 | 0.593 | 0.319 | 0.38 |  | 0.357 | 0.312 | 0.348 | 0.402 | 0.338 | 1.01 | 0.808 | 0.84 | 1.02 | 0.804 | 0.979 | 0.922 | 0.917 | 0.655
5 | EKVX | 1.22 | 1 | 0.928 | 0.6 | 0.893 | 0.96 | 0.862 | 0.965 | 0.99 | 1.06 | 0.871 | 0.916 | 1.05 | 1 | 0.953 | 0.957 | 0.936 | 0.371
6 | NCI-H1666 | 0.856 | 0.828 | 0.744 | 0.803 | 0.932 | 0.969 | 1.04 | 1.08 | 1.02 | 1.05 | 0.974 | 0.951 | 1.04 | 0.965 | 1.01 | 0.952 | 0.977 | 0.83
7 | NCI-H1944 |  |  |  |  | 0.881 | 0.892 | 0.742 | 0.927 | 0.819 | 1.06 | 0.934 | 0.964 | 0.985 | 0.773 | 0.922 | 0.875 | 0.882 | 0.717
8 | NCI-H1734 | 0.932 | 1.01 | 0.843 | 1 | 0.707 | 0.664 | 0.653 | 0.855 | 0.737 | 0.947 | 1.02 | 0.988 | 1.02 | 0.916 | 0.946 | 0.878 | 1.08 | 1.01
9 | NCI-H358 |  |  |  |  | 0.897 | 1.01 | 0.756 | 0.991 | 0.605 | 1.03 | 1.04 | 0.856 | 0.924 | 0.672 | 0.94 | 0.909 | 0.865 | 0.355
10 | NCI-H1793 |  |  |  |  | 0.684 | 0.964 | 0.712 | 0.76 | 0.717 | 0.909 | 1.02 | 0.811 | 1.07 | 0.88 | 0.923 | 0.98 | 0.837 | 0.61
11 | ChaGo-K-1 | 0.96 | 0.957 | 0.941 | 0.989 |  |  |  |  |  | 0.933 | 0.977 | 0.941 | 0.931 | 0.937 | 0.982 | 1.01 | 0.968 | 0.909
12 | NCI-H522 |  |  |  |  |  |  |  |  |  | 0.938 | 0.881 | 1.03 | 0.869 | 0.95 | 0.943 | 0.71 | 0.839 | 0.741
13 | NCI-H1648 |  |  |  |  |  |  |  |  |  | 0.878 | 0.605 | 0.871 | 0.865 | 1.07 | 0.818 | 0.863 | 0.984 | 0.323
14 | SK-MES-1 |  |  |  |  | 0.849 | 0.972 | 0.866 | 0.916 | 0.95 | 1.05 | 1.01 | 0.973 | 1.06 | 0.936 | 1.06 | 0.912 | 0.91 | 0.915
15 | NCI-H2342 |  |  |  |  |  |  |  |  |  | 1.07 | 0.844 | 0.924 | 1.09 | 0.968 | 1.1 | 0.983 | 0.934 | 0.815
16 | SW 900 |  |  |  |  |  |  |  |  |  | 0.813 | 0.851 | 1.06 | 0.86 | 0.645 | 1.05 | 0.709 | 0.928 | 0.878
17 | LK-2 |  |  |  |  | 0.637 | 0.924 | 1.1 | 0.956 | 0.997 | 0.981 | 1.04 | 0.979 | 1.14 | 0.898 | 1.04 |  | 0.892 | 0.89
18 | NCI-H1395 |  |  |  |  | 1.1 | 1.14 | 1.1 | 0.914 | 0.938 | 0.983 | 0.778 | 0.975 | 0.795 | 0.853 | 1.07 | 1.08 | 0.907 | 0.924
19 | A549 |  |  |  |  | 0.808 | 0.795 | 0.743 | 0.798 | 0.747 | 1.05 | 0.977 | 0.959 | 1.12 | 0.949 | 0.993 | 0.979 | 0.793 | 0.992
20 | NCI-H2170 |  |  |  |  | 0.856 | 0.815 | 0.814 | 0.951 | 0.912 | 0.998 | 1.04 | 0.943 | 1.01 | 1.01 | 1.01 | 0.922 | 0.921 | 
21 | NCI-H1650 | 0.215 | 0.213 | 0.225 | 0.176 |  |  |  |  |  | 0.927 | 0.955 | 1.03 | 0.867 | 0.876 | 0.956 | 0.813 | 0.829 | 0.849
